Source: US8592446B2, “[1,10]-phenanthroline derivatives for the treatment of neurodegenerative or haematological diseases” (Noscira, S.A., priority 2007, dated 2013)
Read-outs that look alike come from different tables or passages of the source.

How the values were obtained:
[1] = system: SH-SY5Y human neuroblastoma cells; test: Protection against hydrogen peroxide-induced cell death (LDH); assay type: cell-based; conditions: compound 1 h before H2O2 100 μM, 24 h; for minimal effective concentration: Homo sapiens, SH-SY5Y, read-out: Protect. H2O2 (minimum concentration for which protection was determined)
Experimental: The aim of this assay is to determine the neuroprotective effect of the compounds of formula (I), when human neuroblastoma cells are exposed to oxidative stress induced by hydrogen peroxide, which is highly deleterious to the cell and its accumulation causes oxidation of cellular targets such as DNA, proteins, and lipids leading to mutagenesis and cell death.
SH-SY5Y human neuroblastoma cells are seeded into 96-well culture plate at a density of 10^4 cells/well. Cells are exposed to different concentrations of the compound one hour before the treatment with H2O2 100 μM during 24 h. 5 mM N-acetylcysteine (NAC), a known anti-oxidant agent was used as a positive control, and preincubated 1 hour before the treatment with H2O2. After 24 h, the medium is removed and cells attached to the bottom of the well are lysed by adding 50 μl of Triton X-100 1% in Krebs-Hepes during 5 minutes at room temperature. For LDH release quantification, Roche cytotoxicity detection kit (Cat. No. 11 644 793 001) was used.

[2] = Screening pharmacokinetic study, plasma and brain (LC-MS/MS); assay type: in vivo, mice (C57BL6/J); conditions: mice; for Kp / bioavailability / Tmax / half-life / AUC / Cmax: male, C57BL6/J, mouse; for Kp: brain and plasma
Experimental: The objective of this study is to evaluate the oral bioavailability and the plasmatic and brain pharmacokinetic parameters after oral and intravenous administration, thus determining if compounds of formula (I) are able to cross the blood brain barrier (BBB). […] Each compound was solved in appropriate excipients. In the case of oral administration, compound was administered by means of an oral gavage coupled to a syringe. In the intravenous administration animals, the test item was administered by a single injection with a syringe coupled to a 30 G needle.
Two animals were sacrificed (according to internal SOPs and following animal handling and welfare guidelines) at each selected extraction times (i.e. 30 min, 1 h, 2 h, 4 h, 6 h, 8 h and 24 hours after administration), and from each animal, both brain and blood samples were obtained. Plasma was extracted by centrifugation of the blood samples. Each sample time represents two male mice from which samples were obtained.
The method for the analysis of plasma and brain samples involved isolation of the analyte from the biological matrix by protein precipitation or solid-phase extraction followed by analysis using LC-MS/MS. Limits of quantification for these compounds were in the order of 2-10 ng/mL. The software Winnonlin professional version 5.2 was used for the calculation of pharmacokinetic parameters.
In the following tables, the abbreviations have the meaning indicated below: • AUC=Area under the curve • T1/2=Half-life • Tmax=the time after administration of a drug when the maximum plasma concentration is reached; when the rate of absorption equals the rate of elimination • Cmax=maximum plasma concentration of the drug • V. Adm. and Vol. Adm.=volume of administration

[3] = Chelating ability with Cu (II) (absorbance spectra); assay type: physicochemical; conditions: 200 μM, PBS 10 mM, pH 7.4, FIG. 6
Experimental: FIG. 6 depicts the absorbance spectra of the mixture of Cu (II) and each of the quelating ligands (Compound 4, Compound 7, Compound 8). Concentration of Cu(II) and all compounds 200 μM, PBS 10 mM, pH 7.4.
FIG. 7 is the absorbance spectra of the complex Cu(II)-Compound 10. Concentration 200 μM, PBS 10 mM, pH 7.4.
(§1) Therefore, it may be observed that the compounds of formula (I) have a high affinity to Fe (II) in comparison to the rest of metalic ions tested.

[4] = Chelating ability with Fe (III) (absorbance spectra); assay type: physicochemical; conditions: PBS 10 mM, pH 7.4, ligand and Fe(III) 200 μM, FIG. 1
Experimental: FIG. 1 is an absorbance spectrum of compounds 4, 7, 8 and 10 in absence and presence of Fe(III). PBS 10 mM, pH 7.4. Concentration of ligand and Fe(III), 200 μM.
Only one line is observed, as the spectra are overlapping (see FIG. 1).

[5] = Chelating ability with Fe(II) (absorbance spectra); assay type: physicochemical; conditions: for Formation constant: Fe (II) complex 1:3 (ML3); for Dissociation grade / Stoichiometry / ε approx.: Fe (II) complex; for Ability to complex Fe (II) (spectrum of mixture vs sum of individual spectra): PBS 10 mM, pH 7.4 or 8, FIGS. 2-5
Experimental: FIG. 2 is an absorbance spectrum of the complex Fe(II)-Compound 4. Concentration of Fe(II) and Compound 4, 200 μM, PBS 10 mM, pH 8.
FIG. 3 is an absorbance spectrum of the complex Fe(II)-Compound 7. Concentration of Fe(II) and Compound 7 , 400 μM, PBS 10 mM, pH 8.
FIG. 4 is an absorbance spectrum of the complex Fe(II)-Compound 8. Concentration of Fe(II) and Compound 8, 200 μM, PBS 10 mM, pH 7.4.
FIG. 5 is an absorbance spectrum of the complex Fe(II)-Compound 10. Concentration of Fe(II) and Compound 10, 100 μM, PBS 10 mM, pH 7.4.
as §1

[6] = system: SH-SY5Y human neuroblastoma cells; test: Protection against 6-OHDA-induced cell death, condition B (no fetal bovine serum); assay type: cell-based; conditions: preincubated 1 hour, 6-OHDA 50 μM 24 hours, read-out: Protect. 6-OHDA (−FBS) (minimum concentration with neuroprotective effect)
From the text: The aim of this experiment is to determine the protective effect of the compounds of formula (1) against the toxicity caused by 6-OHDA. This toxin induces a cell death similar to which occurs in Parkinson's disease, destroying dopaminergic neurons (“MPTP and 6-hydroxydopamine-induced neurodegeneration as models for Parkinson's disease: neuroprotective strategies”; Grunblatt E, et al.; J Neurol. 2000 Apr; 247 Suppl 2:II95-102).
Two or three days before the experiment, the SH-SY5Y human neuroblastoma cells are seeded into 96-well culture plate at a density of 10^4 cells/well. Cells are exposed to the treatment with 6-OHDA and, finally, cell death is measured by LDH quantification. As positive control we used NAC.
• B) NAC and the compound of formula (I) are preincubated during 1 hour before the treatment with 6-OHDA 50 μM during 24 hours. The assay is performed in a medium without any fetal bovine serum.
For each compound the minimum concentration of compound of formula (I) at which a neuroprotective effect is shown.

[7] = iv, brain AUC relative to plasma AUC, intravenous route, group 1-2 mg/kg, read-out: % AUC
[8] = iv, brain Cmax relative to plasma Cmax, intravenous route, group 1-2 mg/kg, read-out: % Cmax
[9] = po, 20 mg/kg, brain AUC relative to plasma AUC, 20 mg/kg oral route, read-out: % AUC
[10] = po, 20 mg/kg, brain Cmax relative to plasma Cmax, 20 mg/kg oral route, read-out: % Cmax
[11] = plasma, 20 mg/kg oral route (low dose)
[12] = plasma, 200 mg/kg oral route (high dose)
[13] = intravenous route, group 1-2 mg/kg (Compound 4, 8: 1.00; 7: 1.20; 10: 2.00 mg/Kg), brain
[14] = intravenous route, group 1-2 mg/kg (Compound 4, 8: 1.00; 7: 1.20; 10: 2.00 mg/Kg), plasma
[15] = pH 8*, expecting time 30 min (4) or 60 min (7)
[16] = pH 7.4, expecting time Immediate

SMILES	Kp [2, 7]	Kp [2, 8]	Kp [2, 9]	Kp [2, 10]	bioavailability [2, 11] [%]	Tmax ([2]; 20 mg/kg oral route, brain) [min]	half-life ([2]; 20 mg/kg oral route, brain) [min]	AUC ([2]; 20 mg/kg oral route, plasma) [ng·h/mL]	Cmax ([2]; 20 mg/kg oral route, plasma) [ng/mL]	Tmax ([2]; 20 mg/kg oral route, plasma) [min]	half-life ([2]; 20 mg/kg oral route, plasma) [min]	Tmax [2, 13] [min]	AUC [2, 14] [ng·h/mL]	Cmax [2, 14] [ng/mL]	Tmax [2, 14] [min]	half-life [2, 14] [min]	Cmax Brain ([2]; 20 mg/kg oral route, brain) [ng/g]	Cmax Brain [2, 13] [ng/g]	Ability to complex Cu (II) (spectrum of mixture vs sum of individual spectra) [3]	Ability to complex Fe (III) (change in absorbance spectra) [4]	other results
CC(C)Sc1cc(/C=N/O)nc2c1ccc1cccnc12 [Compound 7, 4-Isopropylsulfanyl-[1,10]phenanthroline-2-carbaldehyde oxime]	1.04	3.71	0.278	0.417	7.11	240	43.8	378	106	18	99.6	4.8	319	104	60	268	19.62	386.10	none of the ligands are able to complex the Cu (II)	no change in the absorbance spectra	minimal effective concentration [1]: 0.05 µM; bioavailability [2, 12]: 3.19%; AUC ([2]; 200 mg/kg oral route, plasma): 1700 ng·h/mL; Cmax ([2]; 200 mg/kg oral route, plasma): 1210 ng/mL; Tmax ([2]; 200 mg/kg oral route, plasma): 30 min; Formation constant [5, 15]: 2.0 ± 0.6 · 10^15; Dissociation grade [5, 15]: 0.023 ± 0.002; Stoichiometry [5, 15]: 1:3 (ML3); ε approx. [5, 15]: ~280 L/mol/cm; Ability to complex Fe (II) (spectrum of mixture vs sum of individual spectra) [5]: able to complex the Fe (II); minimal effective concentration [6]: 0.5 µM
CSc1cc(/C=N/O)nc2c1ccc1cccnc12 [Compound 4, 4-Methylsulfanyl-[1,10]phenanthroline-2-carbaldehyde oxime]	1.27	1.33	2.76	0.742	1.01	15	39.6	7.24	20.8	15	18	15	36	78.7	15	13.2	15.40	104.40	none of the ligands are able to complex the Cu (II)	no change in the absorbance spectra	minimal effective concentration [1]: 0.05 µM; Kp ([2]; po, 200 mg/kg, brain AUC relative to plasma AUC, 200 mg/kg oral route, read-out: % AUC): 1.12; Kp ([2]; po, 200 mg/kg, brain Cmax relative to plasma Cmax, 200 mg/kg oral route, read-out: % Cmax): 1.5; bioavailability [2, 12]: 19.1%; Tmax ([2]; 200 mg/kg oral route, brain): 30 min; half-life ([2]; 200 mg/kg oral route, brain): 56.4 min; AUC ([2]; 200 mg/kg oral route, plasma): 1380 ng·h/mL; Cmax ([2]; 200 mg/kg oral route, plasma): 931 ng/mL; Tmax ([2]; 200 mg/kg oral route, plasma): 30 min; half-life ([2]; 200 mg/kg oral route, plasma): 55.2 min; half-life [2, 13]: 23.4 min; Cmax Brain ([2]; 200 mg/kg oral route, brain): 1394.40 ng/g; Formation constant [5, 15]: 8.2 ± 0.5 · 10^12; Dissociation grade [5, 15]: 0.147 ± 0.002; Stoichiometry [5, 15]: 1:3 (ML3); ε approx. [5, 15]: ~1800 L/mol/cm; Ability to complex Fe (II) (spectrum of mixture vs sum of individual spectra) [5]: able to complex the Fe (II); minimal effective concentration [6]: 0.5 µM
COCCOc1cc(/C=N/O)nc2c1ccc1cccnc12 [Compound 8, 4-(2-Methoxy-ethoxy)-[1,10]phenanthroline-2-carbaldehyde oxime]	0.0439	0.0524	0.0418	0.0621	6.67	15	108	325	396	15	234	15	244	690	15	66.6	24.60	36.10	none of the ligands are able to complex the Cu (II)	no change in the absorbance spectra	Protect. H2O2 (minimum concentration for which protection was determined) [1]: 50 nM; half-life [2, 13]: 10.8 min; Formation constant [5, 16]: 4.0 ± 1.3 · 10^17; Dissociation grade [5, 16]: 0.022 ± 0.006; Stoichiometry [5, 16]: 1:3 (ML3); ε approx. [5, 16]: ~1600 L/mol/cm; Ability to complex Fe (II) (spectrum of mixture vs sum of individual spectra) [5]: able to complex the Fe (II); minimal effective concentration [6]: 0.5 µM
